Patent US8017656B2, “Organic sulfur compounds and use thereof” (Sumitomo Chemical Company, Limited, priority 2005, dated 2011)
Where two headings read alike, the source gives them in different places.

Key:
Assay type in all cases: in vivo
Musca domestica = test: Test Example 2: filter paper/sucrose bait test against housefly imagoes; conditions: read-out: rate of dead pests
Method: (§1) On the bottom of a polyethylene cup having a diameter of 5.5 cm, a filter paper having the same diameter was laid, and 0.7 ml of the above test solution was added dropwise on the filter paper, followed by putting 30 mg of sucrose on it uniformly as a bait. Ten female Musca domestica imagoes were set free in the polyethylene cup and covered it with a lid. After 24 hours, the number of surviving and dead Musca domestica was examined and the rate of dead pests was calculated.

Blattella germanica = test: Test Example 3: filter paper/sucrose bait test against German cockroach imagoes; conditions: Blattella germanica, 144 h, read-out: rate of dead pests
Method: as §1, with “Two male Blattella germanica” for “Ten female Musca domestica”, “6 days,” for “24 hours,”, “Blattella germanica” for “Musca domestica”

Culex pipiens pallens = test: Test Example 4: mosquito larvae test in treated water; conditions: 24 h, read-out: rate of dead pests
Method: 0.7 ml of above test solution was added to 100 ml of ion exchanged water (active ingredient concentration: 3.5 ppm). Twenty last-instar larvae of Culex pipiens pallens were set free in the solution. After one day, the number of surviving and dead Culex pipiens pallens was examined and the rate of dead pests was calculated.

[1] = 500 ppm test solution, 0.7 ml on filter paper with 30 mg sucrose, ten female imagoes, after 24 hours
[2] = 500 ppm test solution, 0.7 ml on filter paper with 30 mg sucrose, two male imagoes, after 6 days
[3] = active ingredient concentration 3.5 ppm in water, twenty last-instar larvae, after one day

Row | Structure (SMILES) | pest or weed control at 500 ppm (Musca domestica; [1]) [%] | pest or weed control at 500 ppm (Blattella germanica; [2]) [%] | pest or weed control at 3.5 ppm (Culex pipiens pallens; [3]) [%] | pest or weed control at 500 ppm (Musca domestica; 24 h) [%] | pest or weed control at 500 ppm (Blattella germanica) [%] | pest or weed control at 3.5 ppm (Culex pipiens pallens) [%]
1 | CC(C)NC(=O)C(C)(CCC(F)(F)C(F)(F)F)S(=O)(=O)CCC(F)(F)F (stereo not drawn) [(41)] | ≥ 70 | 100 | ≥ 90 |  |  | 
2 | CC(C#N)(CCCC(F)(F)F)S(=O)(=O)CCC(F)(F)F (stereo not drawn) [(45)] | ≥ 70 | 100 | ≥ 90 |  |  | 
3 | CCOC(=O)C(C)(CCC(F)(F)C(F)(F)F)S(=O)(=O)CCC(F)(F)F (stereo not drawn) [(46)] | ≥ 70 | 100 | ≥ 90 |  |  | 
4 | CC(CCC(F)(F)C(F)(F)F)(C(N)=S)S(=O)(=O)CCC(F)(F)F (stereo not drawn) [(49)] | ≥ 70 | 100 | ≥ 90 |  |  | 
5 | CC(C#N)(CCC(F)(F)C(F)(F)F)SCCC(F)(F)F (stereo not drawn) [(50)] | ≥ 70 | 100 | ≥ 90 |  |  | 
6 | COC(=O)C(C)(CCC(F)(F)C(F)(F)C(F)(F)F)S(=O)(=O)CCC(F)(F)C(F)(F)F (stereo not drawn) [(52)] |  |  |  | ≥ 70 | 100 | ≥ 90
7 | N#CC(CCC(F)(F)F)S(=O)(=O)CCC(F)(F)C(F)(F)F (stereo not drawn) [(53)] | ≥ 70 | 100 | ≥ 90 |  |  | 
8 | CC(CCC(F)(F)C(F)(F)C(F)(F)F)(C(N)=O)S(=O)(=O)CCC(F)(F)C(F)(F)F (stereo not drawn) [(56)] |  |  |  | ≥ 70 | 100 | ≥ 90
9 | CC(C#N)(CCC(F)(F)C(F)(F)F)[S+]([O-])CCC(F)(F)F (stereo not drawn) [(57)] | ≥ 70 | 100 | ≥ 90 |  |  | 
10 | COC(=O)C(Cl)(CCC(F)(F)C(F)(F)F)S(=O)(=O)CCC(F)(F)F (stereo not drawn) [(58)] | ≥ 70 | 100 | ≥ 90 |  |  | 
11 | NC(=O)C(Cl)(CCC(F)(F)C(F)(F)F)S(=O)(=O)CCC(F)(F)F (stereo not drawn) [(59)] | ≥ 70 | 100 | ≥ 90 |  |  | 
12 | NC(=O)C(CCC(F)(F)C(F)(F)F)S(=O)(=O)CCC(F)(F)C(F)(F)F (stereo not drawn) [(60)] | ≥ 70 | 100 | ≥ 90 |  |  | 
13 | CC(CCC(F)(F)C(F)(F)F)(C(N)=O)S(=O)(=O)CCC(F)(F)C(F)(F)F (stereo not drawn) [(61)] | ≥ 70 | 100 | ≥ 90 |  |  | 
14 | COC(=O)C(CCC(F)(F)C(F)(F)F)[S+]([O-])CCC(F)(F)F (stereo not drawn) [(63)] | ≥ 70 | 100 | ≥ 90 |  |  | 
15 | COC(=O)C(Br)(CCC(F)(F)C(F)(F)F)S(=O)(=O)CCC(F)(F)F (stereo not drawn) [(65)] | ≥ 70 | 100 | ≥ 90 |  |  | 
16 | NC(=O)C(F)(CCC(F)(F)C(F)(F)F)S(=O)(=O)CCC(F)(F)C(F)(F)C(F)(F)F (stereo not drawn) [(67)] |  |  |  | ≥ 70 | 100 | ≥ 90
17 | COC(=O)C(C)(CCC(F)(F)C(F)(F)F)SCCC(F)(F)F (stereo not drawn) [(68)] | ≥ 70 | 100 | ≥ 90 |  |  | 
18 | CNC(=O)C(F)(CCC(F)(F)C(F)(F)F)S(=O)(=O)CCC(F)(F)F (stereo not drawn) [(69)] | ≥ 70 | 100 | ≥ 90 |  |  | 
19 | CC(CCC(F)(F)C(F)(F)F)(SCCC(F)(F)F)C(N)=O (stereo not drawn) [(70)] | ≥ 70 | 100 | ≥ 90 |  |  | 
20 | COC(=O)C(C)(CCC(F)(F)C(F)(F)F)[S+]([O-])CCC(F)(F)F (stereo not drawn) [(71)] | ≥ 70 | 100 | ≥ 90 |  |  | 
21 | COC(=O)C(F)(CCC(F)(F)C(F)(F)F)S(=O)(=O)CCC(F)(F)C(F)(F)F (stereo not drawn) [(72)] | ≥ 70 | 100 | ≥ 90 |  |  | 

Row | Structure (SMILES) | pest or weed control at 500 ppm (Musca domestica; [1]) [%] | pest or weed control at 500 ppm (Blattella germanica; [2]) [%] | pest or weed control at 3.5 ppm (Culex pipiens pallens; [3]) [%] | pest or weed control at 500 ppm (Musca domestica; 24 h) [%] | pest or weed control at 500 ppm (Blattella germanica) [%] | pest or weed control at 3.5 ppm (Culex pipiens pallens) [%]
22 | NC(=O)C(F)(CCC(F)(F)C(F)(F)F)S(=O)(=O)CCC(F)(F)C(F)(F)F (stereo not drawn) [(73)] | ≥ 70 | 100 | ≥ 90 |  |  | 
23 | CN(C)C(=O)C(F)(CCC(F)(F)C(F)(F)F)S(=O)(=O)CCC(F)(F)F (stereo not drawn) [(74)] | ≥ 70 | 100 | ≥ 90 |  |  | 
24 | CNC(=O)C(Cl)(CCC(F)(F)C(F)(F)F)S(=O)(=O)CCC(F)(F)F (stereo not drawn) [(75)] | ≥ 70 | 100 | ≥ 90 |  |  | 
25 | COC(=O)C(Cl)(CCCC(F)(F)F)S(=O)(=O)CCC(F)(F)F (stereo not drawn) [(79)] | ≥ 70 | 100 | ≥ 90 |  |  | 
26 | NC(=O)C(Cl)(CCCC(F)(F)F)S(=O)(=O)CCC(F)(F)F (stereo not drawn) [(80)] | ≥ 70 | 100 | ≥ 90 |  |  | 
27 | NC(=O)C(Cl)(CCC(F)(F)F)S(=O)(=O)CCC(F)(F)F (stereo not drawn) [(81)] | ≥ 70 | 100 | ≥ 90 |  |  | 
28 | NC(=O)C(Cl)(CCC(F)(F)C(F)(F)C(F)(F)F)S(=O)(=O)CCC(F)(F)F (stereo not drawn) [(84)] |  |  |  | ≥ 70 | 100 | ≥ 90
29 | COC(=O)C(Cl)(CCC(F)(F)C(F)(F)C(F)(F)C(F)(F)F)S(=O)(=O)CCC(F)(F)F (stereo not drawn) [(86)] |  |  |  | ≥ 70 | 100 | ≥ 90
30 | NC(=O)C(Cl)(CCC(F)(F)C(F)(F)C(F)(F)C(F)(F)F)S(=O)(=O)CCC(F)(F)F (stereo not drawn) [(87)] |  |  |  | ≥ 70 | 100 | ≥ 90
31 | COC(=O)C(Cl)(CCC(F)(F)C(F)(F)F)S(=O)(=O)CCC(F)(F)C(F)(F)F (stereo not drawn) [(88)] | ≥ 70 | 100 | ≥ 90 |  |  | 
32 | NC(=O)C(Cl)(CCC(F)(F)C(F)(F)F)S(=O)(=O)CCC(F)(F)C(F)(F)F (stereo not drawn) [(89)] | ≥ 70 | 100 | ≥ 90 |  |  | 
33 | COC(=O)C(F)(CCC(F)(F)C(F)(F)C(F)(F)F)S(=O)(=O)CCC(F)(F)F (stereo not drawn) [(90)] |  |  |  | ≥ 70 | 100 | ≥ 90
34 | NC(=O)C(F)(CCC(F)(F)C(F)(F)C(F)(F)F)S(=O)(=O)CCC(F)(F)F (stereo not drawn) [(91)] |  |  |  | ≥ 70 | 100 | ≥ 90
35 | COC(=O)C(Cl)(CCC(F)(F)F)S(=O)(=O)CCC(F)(F)C(F)(F)F (stereo not drawn) [(93)] | ≥ 70 | 100 | ≥ 90 |  |  | 
36 | NC(=O)C(Cl)(CCC(F)(F)F)S(=O)(=O)CCC(F)(F)C(F)(F)F (stereo not drawn) [(94)] | ≥ 70 | 100 | ≥ 90 |  |  | 
37 | COC(=O)C(Cl)(CCC(F)(F)C(F)(F)C(F)(F)F)S(=O)(=O)CCC(F)(F)C(F)(F)F (stereo not drawn) [(96)] |  |  |  | ≥ 70 | 100 | ≥ 90
38 | NC(=O)C(Cl)(CCC(F)(F)C(F)(F)C(F)(F)F)S(=O)(=O)CCC(F)(F)C(F)(F)F (stereo not drawn) [(97)] |  |  |  | ≥ 70 | 100 | ≥ 90
39 | NC(=O)C(Cl)(CCCCC(F)(F)F)S(=O)(=O)CCC(F)(F)F (stereo not drawn) [(100)] | ≥ 70 | 100 | ≥ 90 |  |  | 
40 | COC(=O)C(Cl)(CCCC(F)(F)C(F)(F)F)S(=O)(=O)CCC(F)(F)F (stereo not drawn) [(102)] | ≥ 70 | 100 | ≥ 90 |  |  | 
41 | NC(=O)C(Cl)(CCCC(F)(F)C(F)(F)F)S(=O)(=O)CCC(F)(F)F (stereo not drawn) [(103)] | ≥ 70 | 100 | ≥ 90 |  |  | 
